From patent publication US10221158B2, “Heterocyclic constrained tricyclic sulfonamides as anti-cancer agents” (ICAHN SCHOOL OF MEDICINE AT MOUNT SINAI, priority 2015, dated 2019) come the findings set out here.

This experiment concerns H1650 lung cancer cells. Put plainly: Cell viability assay (MTT, IC50 determination). In kind it is cell-based. Conditions: Homo sapiens, NCI-H1650, 48 h drug treatment. The procedure: Cell Viability Assays (IC50 Determination)
Cell viability assays were performed according to Denizot, F. and R. Lang, Journal of Immunological Methods, 1986. 89(22): p. 271-277. H1650 lung cancer cells were plated at 150,000 cells per well in a 12 well plate. Twenty-four hours after plating, cells were treated as described with increasing concentrations of drug and control. Forty-eight hours after drug treatment, cells were treated with 100 μL of 3-(4,5-Dimethylthiazol-2-yl)-2,5-diphenyltetrazolium bromide (MTT) and incubated for 2 hours at 37 C. The MTT solution was subsequently replaced with 300 μL of n-propyl alcohol and re-aliquoted to a 96 well plate. Spectrophotometric analysis of each solution was performed using a 96 well plate reader at 600 nm in triplicate.

Structures are written as SMILES.

For the compound `O=S(=O)(N[C@@H]1COC[C@H](N2c3ccccc3CCc3ccccc32)[C@H]1O)c1ccc(OC(F)(F)F)cc1` (racemic) [Example 1, Rac-N-((3R,4R,5S)-5-(10,11-dihydro-5H-dibenzo[b,f]azepin-5-yl)-4-hydroxytetrahydro-2H-pyran-3-yl)-4-(trifluoromethoxy)benzenesulfonamide], the IC50 amounted to 15 µM.
